ChEMBL document CHEMBL1123774, “Peptide quantitative structure-activity relationships, a multivariate approach” (J Med Chem, 1987)
Peptide text beside a SMILES is read from it.

Assay: Bradykinin potentiating activity was determined as the activity index by PLS model

Row | Structure (SMILES) | Log RAI
1 | C[C@H](N)C(=O)N[C@@H](C)C(=O)N[C@@H](C)C(=O)N[C@@H](C)C(=O)N[C@@H](C)C(=O)O | -0.1
2 | C[C@H](N)C(=O)N[C@@H](C)C(=O)N[C@@H](Cc1ccc(O)cc1)C(=O)N[C@@H](C)C(=O)N[C@@H](C)C(=O)O | 0.46
3 | C[C@H](N)C(=O)N[C@@H](C)C(=O)N[C@@H](Cc1c[nH]c2ccccc12)C(=O)N[C@@H](C)C(=O)N[C@@H](C)C(=O)O (H-AAWAA-OH) | 0.75
4 | C[C@H](NC(=O)[C@H](Cc1c[nH]c2ccccc12)NC(=O)[C@H](CCCCN)NC(=O)[C@@H](N)CCC(=O)O)C(=O)N1CCC[C@H]1C(=O)O (H-EKWAP-OH) | 1.3
5 | C[C@H](NC(=O)[C@H](C)NC(=O)[C@H](CCC(=O)O)NC(=O)[C@@H](N)Cc1ccccc1)C(=O)N[C@@H](CCCCN)C(=O)O (H-FEAAK-OH) | 0.3
6 | NC(N)=NCCC[C@H](NC(=O)[C@H](Cc1ccccc1)NC(=O)[C@@H]1CCCN1C(=O)[C@H](CO)NC(=O)[C@@H](N)Cc1ccccc1)C(=O)O (H-FSPFR-OH) | 0.64
7 | C[C@H](NC(=O)[C@H](C)NC(=O)[C@H](CCC(=O)O)NC(=O)CN)C(=O)N[C@@H](CCCCN)C(=O)O (H-GEAAK-OH) | -0.52
8 | O=C(CNC(=O)[C@@H]1CCCN1)N[C@@H](Cc1ccccc1)C(=O)N[C@@H](CO)C(=O)N1CCC[C@H]1C(=O)O (H-PGFSP-OH) | 0.9
9 | C[C@H](NC(=O)[C@H](Cc1c[nH]c2ccccc12)NC(=O)[C@H](CCCCN)NC(=O)[C@@H](N)CCCN=C(N)N)C(=O)N1CCC[C@H]1C(=O)O (H-RKWAP-OH) | 1.98
10 | CC(C)[C@H](N)C(=O)N[C@@H](C)C(=O)N[C@@H](C)C(=O)N[C@@H](C)C(=O)N[C@@H](CCCCN)C(=O)O (H-VAAAK-OH) | -0.1
11 | CC(C)[C@H](N)C(=O)N[C@@H](C)C(=O)N[C@@H](C)C(=O)N[C@@H](Cc1c[nH]c2ccccc12)C(=O)N[C@@H](CCCCN)C(=O)O (H-VAAWK-OH) | 0.23
12 | CC(C)[C@H](N)C(=O)N[C@@H](C)C(=O)N[C@@H](Cc1c[nH]c2ccccc12)C(=O)N[C@@H](C)C(=O)N[C@@H](C)C(=O)O (H-VAWAA-OH) | 1.43
13 | CC(C)[C@H](N)C(=O)N[C@@H](C)C(=O)N[C@@H](Cc1c[nH]c2ccccc12)C(=O)N[C@@H](C)C(=O)N[C@@H](CCCCN)C(=O)O (H-VAWAK-OH) | 1.45
14 | CC(C)[C@H](N)C(=O)N[C@@H](CCC(=O)O)C(=O)N[C@@H](C)C(=O)N[C@@H](C)C(=O)N1CCC[C@H]1C(=O)O (H-VEAAP-OH) | 0.18
15 | CC(C)[C@H](N)C(=O)N[C@@H](CCC(=O)O)C(=O)NCC(=O)NCC(=O)N[C@@H](CCCCN)C(=O)O (H-VEGGK-OH) | -1
16 | CC(C)[C@H](N)C(=O)N[C@@H](CCC(=O)O)C(=O)N[C@@H](Cc1c[nH]c2ccccc12)C(=O)N[C@H](C(=O)N[C@@H](CCCCN)C(=O)O)C(C)C (H-VEWVK-OH) | 1.71
17 | CC(C)[C@H](N)C(=O)N[C@@H](CCCCN)C(=O)N[C@@H](Cc1c[nH]c2ccccc12)C(=O)N[C@@H](C)C(=O)N[C@@H](C)C(=O)O (H-VKWAA-OH) | 1.71
18 | CC(C)[C@H](N)C(=O)N[C@@H](CCCCN)C(=O)N[C@@H](Cc1c[nH]c2ccccc12)C(=O)N[C@@H](C)C(=O)N1CCC[C@H]1C(=O)O (H-VKWAP-OH) | 2.35
19 | CC(C)[C@H](N)C(=O)N[C@@H](Cc1c[nH]c2ccccc12)C(=O)N[C@@H](C)C(=O)N[C@@H](C)C(=O)N[C@@H](CCCCN)C(=O)O (H-VWAAK-OH) | 0.04

Results, then the molecule that gave them:

Row | Log RAI | Structure (SMILES)
20 | 0.4 | CC(C)C[C@H](N)C(=O)N[C@@H](CCC(=O)O)C(=O)N[C@@H](C)C(=O)N[C@@H](C)C(=O)N[C@@H](CCCCN)C(=O)O (H-LEAAK-OH)
21 | 0.51 | CC(C)[C@H](N)C(=O)N[C@@H](CCC(=O)O)C(=O)N[C@@H](C)C(=O)N[C@@H](C)C(=O)N[C@@H](CCCCN)C(=O)O (H-VEAAK-OH)
22 | 0.2 | CC(C)[C@H](N)C(=O)N[C@@H](CCC(=O)O)C(=O)N[C@@H](C)C(=O)N[C@@H](CO)C(=O)N[C@@H](CCCCN)C(=O)O (H-VEASK-OH)
23 | 1.57 | CC(C)[C@H](N)C(=O)N[C@@H](CCC(=O)O)C(=O)N[C@@H](Cc1ccccc1)C(=O)N[C@@H](C)C(=O)N[C@@H](CCCCN)C(=O)O (H-VEFAK-OH)
24 | 1.53 | CC(C)[C@H](N)C(=O)N[C@@H](CCC(=O)O)C(=O)N[C@@H](Cc1c[nH]cn1)C(=O)N[C@@H](C)C(=O)N[C@@H](CCCCN)C(=O)O (H-VEHAK-OH)
25 | 0.59 | CC(C)C[C@H](NC(=O)[C@H](CCC(=O)O)NC(=O)[C@@H](N)C(C)C)C(=O)N[C@@H](C)C(=O)N[C@@H](CCCCN)C(=O)O (H-VELAK-OH)
26 | 0.28 | CC(C)[C@H](N)C(=O)N[C@@H](CCC(=O)O)C(=O)N[C@@H](CO)C(=O)N[C@@H](C)C(=O)N[C@@H](CCCCN)C(=O)O (H-VESAK-OH)
27 | 0 | CC(C)[C@H](N)C(=O)N[C@@H](CCC(=O)O)C(=O)N[C@@H](CO)C(=O)N[C@@H](CO)C(=O)N[C@@H](CCCCN)C(=O)O (H-VESSK-OH)
28 | 2.73 | CC(C)[C@H](N)C(=O)N[C@@H](CCC(=O)O)C(=O)N[C@@H](Cc1c[nH]c2ccccc12)C(=O)N[C@@H](C)C(=O)N[C@@H](CCCCN)C(=O)O (H-VEWAK-OH)
29 | 0.11 | CC(C)[C@H](N)C(=O)N[C@@H](CCCCN)C(=O)N[C@@H](C)C(=O)N[C@@H](C)C(=O)N[C@@H](CCCCN)C(=O)O (H-VKAAK-OH)
